US8461328B2, “Tricyclic heterocyclic compounds, compositions and methods of use thereof” (Genentech, Inc., priority 2010, dated 2013)

Columns and labels:
Assay type in all cases: biochemical
JAK1 = target: T1, JAK1 (Homo sapiens, UniProt P23458); experiment: JAK1 inhibition (Table 4); conditions: read-out: JAK1 Ki
T1 construct: made in house; host or cells: SF9 insect cells (baculovirus)

JAK2 = target: T2, JAK2 (Homo sapiens, UniProt O60674); experiment: JAK2 inhibition (Table 4); conditions: read-out: JAK2 Ki
T2 construct: made in house; host or cells: SF9 insect cells (baculovirus)
T2 sequence (O60674 812-1132): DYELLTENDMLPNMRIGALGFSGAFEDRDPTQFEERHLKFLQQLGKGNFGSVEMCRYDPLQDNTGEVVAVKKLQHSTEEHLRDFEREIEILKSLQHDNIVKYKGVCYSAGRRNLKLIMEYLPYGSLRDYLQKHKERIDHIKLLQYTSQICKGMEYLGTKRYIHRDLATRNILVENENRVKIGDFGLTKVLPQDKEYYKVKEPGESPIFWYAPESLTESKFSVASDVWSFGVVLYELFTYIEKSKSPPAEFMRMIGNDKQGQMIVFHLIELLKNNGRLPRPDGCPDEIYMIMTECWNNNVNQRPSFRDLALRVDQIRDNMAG

JAK3 = target: T3, JAK3 (Homo sapiens, UniProt P52333); experiment: JAK3 inhibition (Table 4); conditions: read-out: JAK3 Ki
T3 construct: made in house; host or cells: SF9 insect cells (baculovirus)
T3 sequence (P52333 783-1124): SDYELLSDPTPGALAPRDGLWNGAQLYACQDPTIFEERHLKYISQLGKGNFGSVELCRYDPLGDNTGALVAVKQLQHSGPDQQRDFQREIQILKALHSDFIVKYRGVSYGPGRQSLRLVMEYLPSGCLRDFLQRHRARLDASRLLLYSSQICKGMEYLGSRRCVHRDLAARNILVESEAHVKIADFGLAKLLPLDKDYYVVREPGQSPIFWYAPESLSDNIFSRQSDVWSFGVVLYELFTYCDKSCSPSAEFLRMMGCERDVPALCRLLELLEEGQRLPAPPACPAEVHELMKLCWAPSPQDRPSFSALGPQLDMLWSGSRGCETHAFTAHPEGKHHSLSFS

TYK2 = target: T4, TYK2 (Homo sapiens, UniProt P29597); experiment: TYK2 inhibition (Table 4)
T4 construct: made in house; host or cells: SF9 insect cells (baculovirus)
T4 sequence (P29597 873-1187): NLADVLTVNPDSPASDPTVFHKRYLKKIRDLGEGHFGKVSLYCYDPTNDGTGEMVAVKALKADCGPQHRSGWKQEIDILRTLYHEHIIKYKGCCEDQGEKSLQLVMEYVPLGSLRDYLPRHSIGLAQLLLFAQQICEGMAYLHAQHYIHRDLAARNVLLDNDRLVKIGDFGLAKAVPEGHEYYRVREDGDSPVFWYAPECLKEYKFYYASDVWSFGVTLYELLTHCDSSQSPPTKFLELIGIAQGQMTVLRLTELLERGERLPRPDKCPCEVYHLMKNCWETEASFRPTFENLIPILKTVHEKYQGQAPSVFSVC

T1 sequence (P23458 852-1154): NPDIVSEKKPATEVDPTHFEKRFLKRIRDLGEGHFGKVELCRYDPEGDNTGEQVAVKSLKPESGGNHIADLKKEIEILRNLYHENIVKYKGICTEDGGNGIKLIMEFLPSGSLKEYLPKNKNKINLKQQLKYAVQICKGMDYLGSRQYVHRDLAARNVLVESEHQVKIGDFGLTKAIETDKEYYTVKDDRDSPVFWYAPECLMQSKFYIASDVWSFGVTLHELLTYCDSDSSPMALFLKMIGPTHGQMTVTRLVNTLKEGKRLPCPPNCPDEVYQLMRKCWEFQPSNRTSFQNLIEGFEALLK

Compound | Ki (JAK1) [nM] | Ki (JAK2) [nM] | Ki (JAK3) [nM] | Ki (TYK2) [nM]
CC(C)(O)[C@H]1CC[C@H](n2cnc3cnc4[nH]ccc4c32)CC1 [Example 148, Trans 2-[4-(6H-1,2,3,5,6-Tetraaza-as-indacen-1-yl)-cyclohexyl]-propan-2-ol] | 1.73 | 1.92 | 23.8 | 12.3
O=C(Cc1nc2cnc3[nH]ccc3c2n1C1CCCOC1)N1CCC(CO)CC1 (racemic) [Example 984, 1-(4-Hydroxymethyl-piperidin-1-yl)-2-[1-(tetrahydro-pyran-3-yl)-1,6-dihydro-1,3,5,6-tetraaza-as-indacen-2-yl]-ethanone] | 17.7 | 295 | 173 | 253
c1ccc(N2CCC[C@@H](n3cnc4cnc5[nH]ccc5c43)C2)cc1 [Example 12, 1-((R)-1-Phenyl-piperidin-3-yl)-1,6-dihydro-1,2,3,5,6-tetraaza-as-indacene] | 31 | 35.7 | 17.2 | 170
O=C1CCCN1c1ccc(S(=O)(=O)N2CCC(n3cnc4cnc5[nH]ccc5c43)CC2)cc1 [Example 445, 1-{4-[4-(6H-1,3,5,6-Tetraaza-as-indacen-1-yl)-piperidine-1-sulfonyl]-phenyl}-pyrrolidin-2-one] | 11.9 | 39.2 | 84 | 96.9
Cc1nc2cnc3[nH]ccc3c2n1[C@@H]1C[C@H]2CC[C@@H](C1)N2Cc1ccccc1 [Example 271, 1-(8-Benzyl-8-aza-bicyclo[3.2.1]oct-3-yl)-2-methyl-1,6-dihydro-1,3,5,6-tetraaza-as-indacene] | 17.4 | 12.4 | 60.4 | 302
C[C@@H](O)c1nc2cnc3[nH]ccc3c2n1[C@H]1CC[C@H](N(C)CC(F)(F)F)CC1 [Example 617, Trans (R)-1-(1-{4-[methyl-(2,2,2-trifluoro-ethyl)-amino]-cyclohexyl}-1,6-dihydro-1,2,3,5,6-tetraaza-as-indacen-2-yl)-ethanol] | 11.9 | 38.7 | 147 | 22.3
OCCc1nc2cnc3[nH]ccc3c2n1C1CCN(Cc2ccccc2)CC1 [Example 82] | 3.5 | 11.3 | 14.2 | 194
Cc1nc2cnc3[nH]ccc3c2n1C1CCC2CC(=O)NC2C1 (single isomer, unassigned) [Example 112, 6-(2-Methyl-6H-1,2,3,5,6-tetraaza-as-indacen-1-yl)-octahydro-indol-2-one] | 4.09 | 10.8 | 63.4 | 17.5
CC1CN(S(C)(=O)=O)CCC1n1cnc2cnc3[nH]ccc3c21 (racemic) [Example 345, 1-(1-Methanesulfonyl-3-methyl-piperidin-4-yl)-1,6-dihydro-1,3,5,6-tetraaza-as-indacene] | 9.12 | 9.67 | 354 | 37.3
c1cnc(N2CCC(n3cnc4cnc5[nH]ccc5c43)CC2)cn1 [Example 72, 1-(1-Pyrazin-2-yl-piperidin-4-yl]-1,6-dihydro-1,3,5,6-tetraaza-as-indacene] | 4.26 | 10.9 | 97.8 | 56.7
C[C@@H](O)c1nc2cnc3[nH]ccc3c2n1[C@H]1CC[C@H](OC(=O)N(C)C)CC1 [Example 609, Trans dimethyl-carbamic acid 4-[2-((R)-1-hydroxy-ethyl)-6H-1,2,3,5,6-tetraaza-as-indacen-1-yl]-cyclohexyl ester] | 96.7 | 641 | 701 | 910
O=C(Cc1nc2cnc3[nH]ccc3c2n1C1CCNCC1)NC1CCCC1 [Example 265, N-Cyclopentyl-2-(1-piperidin-4-yl-1,6-dihydro-1,3,5,6-tetraaza-as-indacen-2-yl)-acetamide] | 29.7 | 406 | 66.1 | 570
CC(C)(C#N)C(=O)N1CCC(n2cnc3cnc4[nH]ccc4c32)CC1 [Example 451, 2,2-Dimethyl-3-oxo-3-[4-(6H-1,3,5,6-tetraaza-as-indacen-1-yl)-piperidin-1-yl]-propionitrile] | 36.6 | 36.1 | 428 | 325
NC1CCCC(n2cnc3cnc4[nH]ccc4c32)C1 (single isomer, unassigned) [Example 367, 3-(6H-1,3,5,6-Tetraaza-as-indacen-1-yl)-cyclohexylamine] | 42.2 | 90.4 | 453 | 157
CN1CCC(NC(=O)Cc2nc3cnc4[nH]ccc4c3n2C2CCCOC2)CC1 (racemic) [Example 981, N-(1-Methyl-piperidin-4-yl)-2-[1-(tetrahydro-pyran-3-yl)-1,6-dihydro-1,3,5,6-tetraaza-as-indacen-2-yl]-acetamide] | 66 | 177 | 162 | 376
CCN1CC[C@@H](n2c(CCNC(C)=O)nc3cnc4[nH]ccc4c32)[C@@H](F)C1 [Example 811, N-{2-[1-((3S,4R)-1-Ethyl-3-fluoro-piperidin-4-yl)-1,6-dihydro-1,3,5,6-tetraaza-as-indacen-2-yl]-ethyl}-acetamide] | 6.78 | 62.9 | 130 | 519
OC1(C2CC2)CCC(n2cnc3cnc4[nH]ccc4c32)CC1 (stereo not drawn) [Example 995, Trans-1-Cyclopropyl-4-(6H-1,3,5,6-tetraaza-as-indacen-1-yl)-cyclohexanol] | 6.41 | 13.7 | 74.1 | 32.1
O=C(N[C@H]1CC[C@H](n2cnc3cnc4[nH]ccc4c32)CC1)OC1CCCC1 [Example 347, [4-(6H-1,3,5,6-Tetraaza-as-indacen-1-yl)-cyclohexyl]-carbamic acid cyclopentyl ester] | 4.96 | 14.5 | 136 | 130
N-tert-Butyl-2-[1-(tetrahydro-pyran-3-yl)-1,6-dihydro-1,3,5,6-tetraaza-as-indacen-2-yl]-acetamide [Example 964] | 78.9 | 274 | 164 | 487
O=C(NCCc1nc2cnc3[nH]ccc3c2n1C1CCCCC1)C1CC1(F)F (racemic) [Example 515, 2,2-Difluoro-cyclopropanecarboxylic acid [2-(1-cyclohexyl-1,6-dihydro-1,3,5,6-tetraaza-as-indacen-2-yl)-ethyl]-amide] | 2.41 | 43.5 | 120 | 25.2
N#CCCN1CCC(n2c(CC(N)=O)nc3cnc4[nH]ccc4c32)CC1 [Example 264, 2-{1-[1-(2-Cyano-ethy)-piperidin-4-yl]-1,6-dihydro-1,3,5,6-tetraaza-as-indacen-2-yl}-acetamide] | 5.32 | 26.7 | 14.1 | 63.4
Cc1cc(CN2CCC(n3c([C@@H](C)O)nc4cnc5[nH]ccc5c43)CC2)no1 [Example 899, (R)-1-{1-[1-(5-Methyl-isoxazol-3-ylmethyl)-piperidin-4-yl]-1,6-dihydro-1,3,5,6-tetraaza-as-indacen-2-yl}-ethanol] | 3.32 | 32.1 | 6.73 | 140
O=S1(=O)CCCN1Cc1nc2cnc3[nH]ccc3c2n1C1CCCCC1 [Example 696, 1-Cyclohyl-2-(1,1-dioxo-1,1,6-isothiazolidin-2-ylmethyl)-1,6-dihydro-1,2,3,5,6-tetraaza-as-indacene] | 13.6 | 66.8 | 57.5 | 49.6
CN(C)CCOC(=O)N[C@H]1CC[C@H](n2cnc3cnc4[nH]ccc4c32)CC1 [Example 358, [4-(6H-1,3,5,6-Tetraaza-as-indacen-1-yl)-cyclohexyl]-carbamic acid 2-dimethylamino-ethyl ester] | 22.2 | 82.6 | 434 | 147
CC1(n2cnc3cnc4[nH]ccc4c32)CCN(Cc2cccc(C#N)c2)CC1 [Example 754, 3-[4-Methyl-4-(6H-1,3,5,6-tetraaza-as-indacen-1-yl)-piperidin-1-ylmethyl]-benzonitrile] | 40.4 | 286 | 961 | 2370
N#CC1CCN([C@H]2CC[C@H](n3c(CO)nc4cnc5[nH]ccc5c43)CC2)CC1 [Example 613, Trans 1-[4-(2-hydroxymethyl-6H-1,2,3,5,6-tetraaza-as-indacen-1-yl)-cyclohexyl]-piperidine-4-carbonitrile] | 2.58 | 15.1 | 318 | 14.5
C[C@@H](O)c1nc2cnc3[nH]ccc3c2n1C1CCC(CC#N)CC1 (stereo partly drawn) [Example 1001, {4-[2-((R)-1-Hydroxy-ethyl)-6H-1,3,5,6-tetraaza-as-indacen-1-yl]-cyclohexyl}-acetonitrile] | 1.15 | 13 | 16.7 | 2.22
CC(O)c1nc2cnc3[nH]ccc3c2n1C1CC2CCC1O2 (single isomer, unassigned) [Example 937, Endo-1-[1-(7-Oxa-bicyclo[2.2.1]hept-2-yl)-1,6-dihydro-1,3,5,6-tetraaza-as-indacen-2-yl]-ethanol] | 80.5 | 174 | 73.3 | 144
